Data taken from patent US20090291950A1, “BICYCLIC HETEROARYL INHIBITORS OF PDE4” (KALYPSYS, INC., priority 2006, published 2009).

Tests used:
PDE4B = molecular target: T1, PDE4B (Homo sapiens, UniProt Q07343); assay: coupled PDE/AK bioluminescent assay; type: biochemical; settings: catalytic domain of PDE4B
T1 construct: hexahistidine (His6) (N); made in house
Text: Phosphodiesterases regulate the activity of the second messenger cyclic adenosine monophosphate (cAMP) by hydrolyzing cAMP to adenosine monophosphate (AMP). We developed a novel coupled PDE/AK bioluminescent high-throughput assay to measure the activity of phosphodiesterases. In the PDE/AK assay, the AMP produced from the hydrolysis of cAMP by phosphodiesterase is converted to adenosine diphosphate (ADP) by the phosphotransferase activity of adenylate kinase (also known as ADK or myokinase). Adenylate kinase will catalyze the conversion of 1 mole of AMP and 1 mole of ATP into 2 moles of ADP. Thus the conversion of AMP to ADP will result in the subsequent loss of ATP. The decrease in ATP concentration can be monitored as light output using luciferase in a reaction that requires ATP to produce light. The PDE/AK assay uses luciferase, which catalyzes the production of light from ATP present in the reaction mix. The amount of emitted light is inversely proportional to the level of AMP present in the reaction. Test compounds are incubated with the phosphodiesterases and phosphodiesterase inhibitors will decrease the rate of cAMP hydrolysis and decrease the subsequent production of AMP. Thus phosphodiesterase inhibitors will decrease the conversion of ATP to ADP and result in the greatest emission of light.
Compounds may be screened for functional potency in in vitro biochemical assays for their ability to inhibit the activity of phosphodiesterase (PDE) enzymes. A novel coupled PDE/AK assay was utilized to measure the inhibitory activity of compounds on PDE isoforms. The catalytic domain of PDE4B was fused to an amino-terminus hex-histidine affinity tag and purified. PDE4B enzyme was incubated with compounds for 10 minutes. Cyclic AMP substrate, ATP and adenylate kinase were then added to the PDE enzyme mix and incubated for 45 minutes at room temperature. A commercial ATP detection assay, Perkin Elmer's easyLite ATP detection reagent, was then added to measure the relative amount of ATP present in the reaction. After 10 minute incubation, the luminescent signal was quantitated with either the Perkin Elmer Viewlux or Molecular Devices Acquest or Analyst. Roflumilast and Rolipram are the positive controls used in the assay.
The PDE/AK assay can be performed with any cAMP dependent phosphodiesterase, and can be performed in 96-, 384-, or 1536-well plates. […] Specifically, the use of radioactive substrates in a phosphodiesterase activity assay requires special protocols for handling and waste disposal, and reduced throughput. Modified substrates add the additional complexity of potentially altering the binding to the phosphodiesterase catalytic site. Fluorescently modified substrates may cause fluorescence artifacts that may interfere in the interpretation of assay results. The use of beads that selectively bind to either the cAMP or AMP may cause an additional complexity in reagent handling. The use of antibodies that selectively bind to either cAMP or AMP can be extremely costly with a relatively small signal to noise ratio. Therefore, the novel PDE/AK assay represents a simple, cost-effective alternative to known methods.

[1] = system: dry eye (corneal staining, tear breakup time); assay: Lacrimal gland inflammation-induced dry eye in rabbits; type: in vivo; settings: topical ocular BID, rabbit ConA dry eye
Text: A more detailed description of the assay used herein may be found in Naglehout, T J et al. 2005, “Preservation of Tear Film Integrity and Inhibition of Corneal Injury by Dexamethasone in a Rabbit Model of Lacrimal Gland Inflammation-Induced Dry Eye,”J. Ocular Pharm. Ther., 21:2. 139-148, the disclosure of which is hereby incorporated by reference as if written herein in its entirety. Rabbits (n=4/group) were randomized into treatment groups and dosed topically BID with maxidex vehicle or test drug beginning one day prior to initiation of dry eye. Each rabbit received bilateral lacrimal gland injections of saline or ConA (300 μg/30 μl) and topical ocular dosing was continued BID throughout the study. Desiccation was initiated 1-2 hours following lacrimal gland injection by placing conscious rabbits in the environmental chamber (10-15% humidity/72° F.). Following 72 consecutive hours of exposure to this dry environment, the animals were anesthetized and sutures were placed in each upper and lower eyelid and lifted to form a corneal/conjunctival cup. Methylene blue dye (1 mL, 1% in dH2O) was added to the cup for three minutes and the excess removed by washing with 200 mL BSS®. The contralateral eye was then stained using the same procedure. Rabbits were euthanized immediately following the staining procedure and the eyes were excised. The corneas were isolated with a trephine and the 9.5-mm punch of the cornea was placed in 2 mL acetone/saturated sodium sulfate (7:3, vol./vol.). Absorbance of the extracted dye was determined at 660 nm. TBUT was quantified in a separate group of treated animals. TBUT was determined by instilling 5 μL sodium fluorescein into the cul de sac and manually blinking the lids to distribute the fluorescein within the tear film. Under slit lamp observation, the eye was held open and the time whereby one or more black spots or streaks appeared in the precorneal tear film was recorded. The rabbits were euthanized 3 days following ConA inj ection.

[2] = 1 × 10^−2 percent concentration
[3] = 1 × 10^−4 percent concentration
[4] = 1 × 10^−6 percent concentration

T1 sequence (Q07343 330-659 limits assumed, species assumed): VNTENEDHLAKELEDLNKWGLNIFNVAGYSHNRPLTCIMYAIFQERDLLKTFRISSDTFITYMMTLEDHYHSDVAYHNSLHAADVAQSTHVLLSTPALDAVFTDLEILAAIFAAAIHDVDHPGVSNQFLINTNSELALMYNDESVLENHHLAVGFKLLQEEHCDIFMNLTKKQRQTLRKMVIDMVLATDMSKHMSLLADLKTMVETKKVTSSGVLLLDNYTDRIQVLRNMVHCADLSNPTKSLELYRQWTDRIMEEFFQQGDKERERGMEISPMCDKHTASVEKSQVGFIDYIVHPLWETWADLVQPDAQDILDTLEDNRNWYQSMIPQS

Row | Structure (SMILES) | IC50 (PDE4B) [µM] | other results
1 | COc1ccc2c(Cc3c(Cl)cncc3Cl)ccnc2c1OC1CCCC1 [Example 6, 8-(Cyclopentyloxy)-4-[(3,5-dichloropyridin-4-yl)methyl]-7-methoxyquinoline] | > 1 | 
2 | COc1ccc2c(Nc3c(Cl)cccc3Cl)ccnc2c1OC1CCCC1 [Example 4, 8-(Cyclopentyloxy)-N-(2,6-dichlorophenyl)-7-methoxyquinolin-4-amine] | > 1 | 
3 | COc1ccc2c(Nc3c(Cl)cccc3Cl)ncnc2c1OC1CCCC1 [Example 1, 8-(Cyclopentyloxy)-N-(2,6-dichlorophenyl)-7-methoxyquinazolin-4-amine] | > 1 | 
4 | COc1ccc2c(C(=O)Nc3c(Cl)cncc3Cl)coc2c1OC1CCCC1 [Example 18, 7-(Cyclopentyloxy)-N-(3,5-dichloropyridin-4-yl)-6-methoxybenzofuran-3-carboxamide] | > 1 | 
5 | COc1ccc2c(Nc3c(Cl)cnc(Cl)c3Cl)ccnc2c1OC1CCCC1 [Example 13, 8-(Cyclopentyloxy)-7-methoxy-N-(2,3,5-trichloropyridin-4-yl)quinolin-4-amine] | > 1 | 
6 | COc1ccc2c(Nc3c(Cl)cncc3Cl)nccc2c1OC1CCCC1 [Example 8] | ≤ 1 | 
7 | COc1ccc2c(Nc3c(Cl)cccc3Cl)nccc2c1OC1CCCC1 [Example 7, 5-(Cyclopentyloxy)-N-(2,6-dichlorophenyl)-6-methoxyisoquinolin-1-amine] | > 1 | 
8 | COc1ccc2c(Cc3c(Cl)cncc3Cl)nccc2c1OC1CCCC1 [Example 9, 5-(Cyclopentyloxy)-1-[(3,5-dichloropyridin-4-yl)methyl]-6-methoxyisoquinoline] | > 1 | 
9 | COc1ccc2c(c1OC1CCCC1)OCCC2Nc1c(Cl)cncc1Cl (centres unmarked) [Example 17, 3,5-Dichloro-N-(8-(cyclopentyloxy)-7-methoxychroman-4-yl)pyridin-4-amine] | > 1 | 
10 | COc1ccc2c(Nc3c(Cl)cccc3Cl)ccnc2c1OC [Example 11, N-(2,6-Dichlorophenyl)-7,8-dimethoxyquinolin-4-amine] | > 1 | 
11 | COc1ccc2c(Nc3c(C)cncc3C)ccnc2c1OC1CCCC1 [Example 15, 8-(Cyclopentyloxy)-N-(3,5-dimethylpyridin-4-yl)-7-methoxyquinolin-4-amine] | > 1 | 
12 | COc1ccc2c(Nc3c(Br)cncc3Br)ccnc2c1OC1CCCC1 [Example 16, 8-(Cyclopentyloxy)-N-(3,5-dibromopyridin-4-yl)-7-methoxyquinolin-4-amine] | > 1 | 
13 | COc1ccc2c(Nc3c(Cl)cncc3Cl)coc2c1OC1CCCC1 [Example 10, 3,5-Dichloro-N-[7-(cyclopentyloxy)-6-methoxybenzofuran-3-yl]pyridine-4-amine] | > 1 | 
14 | COc1ccc2c(Cc3c(Cl)cncc3Cl)ncnc2c1OC1CCCC1 [Example 3, 8-(Cyclopentyloxy)-4-[(3,5-dichloropyridin-4-yl)methyl]-7-methoxyquinazoline] | ≤ 1 | 
15 | COc1ccc2c(Nc3c(Cl)c(Cl)nc(Cl)c3Cl)ccnc2c1OC1CCCC1 [Example 14, 8-(Cyclopentyloxy)-7-methoxy-N-(perchloropyridin-4-yl)quinolin-4-amine] | > 1 | 
16 | COc1ccc2c(NCc3c(Cl)cccc3Cl)coc2c1OC1CCCC1 [Example 12, 7-(Cyclopentyloxy)-N-(2,6-dichlorobenzyl)-6-methoxybenzofuran-3-amine] | > 1 | 
17 | COc1ccc2c(Nc3c(Cl)cncc3Cl)cc(OCCN3CCOCC3)nc2c1OC1CCCC1 [Example 28, 8-(Cyclopentyloxy)-N-(3,5-dichloropyridin-4-yl)-7-methoxy-2-(2-morpholinoethoxy)quinolin-4-amine] | ≤ 1 | 

Further lines, with some results ahead:

Row | IC50 (PDE4B) [µM] | Structure (SMILES) | other results
18 | ≤ 1 | COc1ccc2c(Nc3c(Cl)cncc3Cl)c(Cl)c(OCCN(C)C)nc2c1OC1CCCC1 [Example 26, 3-Chloro-8-(cyclopentyloxy)-N-(3,5-dichloropyridin-4-yl)-2-(2-(dimethylamino)ethoxy)-7-methoxyquinolin-4-amine] | 
19 | > 1 | COc1ccc2c(Nc3c(Cl)cncc3Cl)ncnc2c1OC1CCCC1 [Example 2, 8-(Cyclopentyloxy)-N-(3,5-dichloropyridin-4-yl)-7-methoxyquinazolin-4-amine] | 
20 | ≤ 1 | COc1ccc2c(Nc3c(Cl)cncc3Cl)cc(OCCO)nc2c1OC1CCCC1 [Example 27, 2-(8-(Cyclopentyloxy)-4-(3,5-dichloropyridin-4-ylamino)-7-methoxyquinolin-2-yloxy)ethanol] | 
21 | > 1 | COc1ccc2c(Nc3c(Cl)cncc3Cl)ccnc2c1OC1CCCC1 [Example 5, 8-(Cyclopentyloxy)-N-(3,5-dichloropyridin-4-yl)-7-methoxyquinolin-4-amine] | 
22 | ≤ 1 | CCOc1cc(Nc2c(Cl)cncc2Cl)c2ccc(OC)c(OC3CCCC3)c2n1 [Example 20, 8-(Cyclopentyloxy)-N-(3,5-dichloropyridin-4-yl)-2-ethoxy-7-methoxyquinolin-4-amine] | 
23 | ≤ 1 | COc1ccc2c(Nc3c(Cl)cncc3Cl)cc(OCCN(C)C)nc2c1OCC1CC1 [Example 30, 8-(Cyclopropylmethoxy)-N-(3,5-dichloropyridin-4-yl)-2-(2-(dimethylamino)ethoxy)-7-methoxyquinolin-4-amine] | Activity at Percent Concentration Tested [1, 2]: Inactive; Activity at Percent Concentration Tested [1, 3]: Inactive; Activity at Percent Concentration Tested [1, 4]: Inactive
24 | ≤ 1 | COc1ccc2c(Nc3c(Cl)cncc3Cl)cc(OCCCN(C)C)nc2c1OC1CCCC1 [Example 29, 8-(Cyclopentyloxy)-N-(3,5-dichloropyridin-4-yl)-2-(3-(dimethylamino)propoxy)-7-methoxyquinolin-4-amine] | 
25 | ≤ 1 | CNc1cc(Nc2c(Cl)cncc2Cl)c2ccc(OC)c(OC3CCCC3)c2n1 [Example 22, 8-(Cyclopentyloxy)-N4-(3,5-dichloropyridin-4-yl)-7-methoxy-N2-methylquinoline-2,4-diamine] | 
26 | ≤ 1 | COc1ccc2c(Nc3c(Cl)cncc3Cl)cc(OCCN(C)C)nc2c1OC1CCCC1 [Example 25, 8-(Cyclopentyloxy)-N-(3,5-dichloropyridin-4-yl)-2-(2-(dimethylamino)ethoxy)-7-methoxyquinolin-4-amine] | Activity at Percent Concentration Tested [1, 2]: Inactive; Activity at Percent Concentration Tested [1, 3]: Inactive; Activity at Percent Concentration Tested [1, 4]: Inactive
27 | ≤ 1 | COc1ccc2c(Nc3c(Cl)cncc3Cl)cc(Cl)nc2c1OC1CCCC1 [Example 24, 2-Chloro-8-(cyclopentyloxy)-N-(3,5-dichloropyridin-4-yl)-7-methoxyquinolin-4-amine] | 
28 | ≤ 1 | COc1ccc2c(Nc3c(Cl)cncc3Cl)cc(N(C)C)nc2c1OC1CCCC1 [Example 21, 8-(Cyclopentyloxy)-N4-(3,5-dichloropyridin-4-yl)-7-methoxy-N2,N2-dimethylquinoline-2,4-diamine] | 
29 | ≤ 1 | COc1cc(Nc2c(Cl)cncc2Cl)c2ccc(OC)c(OC3CCCC3)c2n1 [Example 19, 8-(Cyclopentyloxy)-N-(3,5-dichloropyridin-4-yl)-2,7-dimethoxyquinolin-4-amine] | 
